Measurements from patent US11629171B2, “Beta-hairpin peptidomimetics” (POLYPHOR AG, priority 2017, dated 2023).
In brackets after ≈: the same amount, converted by molar mass. Where a SMILES comes first, the peptide text is derived from it. Bridges are numbered along the chain shown (N, C = ends). Roman numbers before positions name the chains, in order. [ ]: non-standard residue; d: D form. The star is where a group is joined. Tle = CC(C)(C)[C@H](N)C(=O)O; NMeV = CN[C@H](C(=O)O)C(C)C; Hiv = CC(C)[C@H](O)C(=O)O; dDab = NCC[C@@H](N)C(=O)O; hSer = N[C@@H](CCO)C(=O)O; NHCH(CH2OH)2 = OCC(CO)N*; Orn = NCCC[C@H](N)C(=O)O; Dab = NCC[C@H](N)C(=O)O; Dap = NC[C@H](N)C(=O)O

Key:
Type in all cases: cell-based
[1] = system: Acinetobacter baumannii 872842; settings: 872842
Outline: (§1)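 CLSI broth microdilution: inoculum ~10^6 CFU/mL in cation-adjusted Mueller-Hinton II broth, with peptide in serial two-fold dilutions plus Polysorbate 80 (0.002% final). MIC (μg/mL) is the lowest concentration without visible growth after 18-20 hours at 35° C.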

[2] = system: Acinetobacter baumannii DSM 30008; settings: DSM 30008
Outline: as §1

[3] = system: Enterobacter cloacae 848840; settings: 848840
Outline: as §1

[4] = system: Escherichia coli 926415; settings: 926415
Outline: as §1

[5] = system: Escherichia coli ATCC 25922; settings: ATCC 25922
Outline: as §1

[6] = system: Klebsiella pneumoniae 968733; settings: 968733
Outline: as §1

[7] = system: Klebsiella pneumoniae SSI #3010; settings: SSI #3010
Outline: as §1

[8] = system: Pseudomonas aeruginosa ATCC 27853; settings: ATCC 27853
Outline: as §1

[9] = system: human red blood cells (hRBC); experiment: Hemolysis; settings: red cells of human, 1 h, 200
Outline: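 Percent lysis of human red cells was derived from OD540 of the supernatant, referenced to 2% Triton X-100, after a 1 h, 37° C incubation of 20% (v/v) cells with 200 μg/mL peptide.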

Compound	MIC [1] [µg/mL]	MIC [2] [µg/mL]	MIC [3] [µg/mL]	MIC [4] [µg/mL]	MIC [5] [µg/mL]	MIC [6] [µg/mL]	MIC [7] [µg/mL]	MIC [8] [µg/mL]	Hemolysis at 200 μg/mL [9] [%]
CC(C)C[C@@H]1NC(=O)[C@@H](CC(C)C)NC(=O)[C@H](CCN)NC(=O)[C@@H](NC(=O)[C@H](CN)NC(=O)[C@@H](NC(=O)[C@H](CCN)NC(=O)CC[C@@H]2NC(=O)[C@@H](CCN)NC(=O)[C@H](CCCN)NC(=O)[C@H](CCN)NC(=O)[C@H](Cc3ccc(O)cc3)NC(=O)[C@@H](NC(=O)[C@@H](O)C(C)C)CSSC[C@@H](C(=O)NC(CO)CO)NC(=O)[C@H](C(C)(C)C)NC(=O)[C@H](CO)NC(=O)[C@H](Cc3c[nH]c4ccccc34)NC2=O)[C@@H](C)O)CCNC(=O)[C@H]([C@@H](C)O)NC(=O)[C@H](CCN)NC(=O)[C@H](CCN)NC1=O [Ex. 172] (I: H-[Hiv]CY[Dab][Orn][dDab]EWS[Tle]C-{NHCH(CH2OH)2} / II: [Dab]T[Dap][Dab][Dab][dL]L[Dab][Dab]T; disulfide I:2-I:11; amide I:7-II:N; lactam II:4-II:C)	0.125 (≈ 0.0524 µM)	0.125 (≈ 0.0524 µM)	0.25 (≈ 0.105 µM)	0.25 (≈ 0.105 µM)	0.125 (≈ 0.0524 µM)	0.5 (≈ 0.21 µM)	0.125 (≈ 0.0524 µM)	0.25 (≈ 0.105 µM)	<1
CC(C)C[C@@H]1NC(=O)[C@@H](CC(C)C)NC(=O)[C@H](CCN)NC(=O)[C@@H](NC(=O)[C@H](CN)NC(=O)[C@@H](NC(=O)[C@H](CCN)NC(=O)CC[C@@H]2NC(=O)CNC(=O)[C@H](CCCN)NC(=O)[C@H](CCN)NC(=O)[C@H](Cc3ccc(O)cc3)NC(=O)[C@@H](NC(=O)[C@@H](O)C(C)C)CSSC[C@@H](C(=O)NC(CO)CO)NC(=O)[C@H](C(C)(C)C)NC(=O)[C@H](CO)NC(=O)[C@H](Cc3c[nH]c4ccccc34)NC2=O)[C@@H](C)O)CCNC(=O)[C@H]([C@@H](C)O)NC(=O)[C@H](CCN)NC(=O)[C@H](CCN)NC1=O [Ex. 173] (I: H-[Hiv]CY[Dab][Orn]GEWS[Tle]C-{NHCH(CH2OH)2} / II: [Dab]T[Dap][Dab][Dab][dL]L[Dab][Dab]T; disulfide I:2-I:11; amide I:7-II:N; lactam II:4-II:C)	0.125 (≈ 0.0534 µM)	0.0625 (≈ 0.0267 µM)	4 (≈ 1.71 µM)	0.25 (≈ 0.107 µM)	0.125 (≈ 0.0534 µM)	2 (≈ 0.854 µM)	0.125 (≈ 0.0534 µM)	0.5 (≈ 0.213 µM)	<1
CC(C)C[C@@H]1NC(=O)[C@@H](CC(C)C)NC(=O)[C@H](CCN)NC(=O)[C@@H](NC(=O)[C@H](CN)NC(=O)[C@@H](NC(=O)[C@H](CCN)NC(=O)CC[C@@H]2NC(=O)[C@@H](CCN)NC(=O)CNC(=O)[C@H](CCN)NC(=O)[C@H](Cc3ccc(O)cc3)NC(=O)[C@@H](NC(=O)[C@@H](O)C(C)C)CSSC[C@@H](C(=O)NC(CO)CO)NC(=O)[C@H](C(C)(C)C)NC(=O)[C@H](CO)NC(=O)[C@H](Cc3c[nH]c4ccccc34)NC2=O)[C@@H](C)O)CCNC(=O)[C@H]([C@@H](C)O)NC(=O)[C@H](CCN)NC(=O)[C@H](CCN)NC1=O [Ex. 174] (I: H-[Hiv]CY[Dab]G[dDab]EWS[Tle]C-{NHCH(CH2OH)2} / II: [Dab]T[Dap][Dab][Dab][dL]L[Dab][Dab]T; disulfide I:2-I:11; amide I:7-II:N; lactam II:4-II:C)	0.125 (≈ 0.0537 µM)	0.0625 (≈ 0.0268 µM)	0.25 (≈ 0.107 µM)	0.125 (≈ 0.0537 µM)	0.0625 (≈ 0.0268 µM)	0.25 (≈ 0.107 µM)	0.0625 (≈ 0.0268 µM)	0.125 (≈ 0.0537 µM)	<1
CC(=O)N[C@H](C(=O)N[C@H]1CSSC[C@@H](C(=O)N[C@@H](CO)C(N)=O)NC(=O)[C@H](C(C)C)NC(=O)[C@@H]2CSSC[C@H](NC(=O)[C@H](Cc3ccc(O)cc3)NC1=O)C(=O)N[C@@H](CCC(=O)N[C@@H](CCN)C(=O)N[C@H](C(=O)N[C@@H](CCN)C(=O)N[C@H]1CCNC(=O)[C@H]([C@@H](C)O)NC(=O)[C@H](CCN)NC(=O)[C@H](CCN)NC(=O)[C@H](CC(C)C)NC(=O)[C@@H](CC(C)C)NC(=O)[C@H](CCN)NC1=O)[C@@H](C)O)C(=O)N[C@H](CCN)C(=O)N[C@@H](CCO)C(=O)N[C@@H](Cc1c[nH]c3ccccc13)C(=O)N2)C(C)C [Ex. 175] (I: Ac-VCYCE[dDab][hSer]WCVCS-NH2 / II: [Dab]T[Dab][Dab][Dab][dL]L[Dab][Dab]T; disulfide I:2-I:11, I:4-I:9; amide I:5-II:N; lactam II:4-II:C)	0.0625 (≈ 0.0256 µM)	0.125 (≈ 0.0511 µM)	0.25 (≈ 0.102 µM)	0.25 (≈ 0.102 µM)	0.0625 (≈ 0.0256 µM)	0.5 (≈ 0.205 µM)	0.125 (≈ 0.0511 µM)	0.125 (≈ 0.0511 µM)	1
CC(C)C[C@@H]1NC(=O)[C@@H](CC(C)C)NC(=O)[C@H](CCN)NC(=O)[C@@H](NC(=O)[C@H](CCN)NC(=O)[C@@H](NC(=O)[C@H](CCN)NC(=O)CC[C@@H]2NC(=O)[C@@H]3CSSC[C@H](NC(=O)[C@H](Cc4c[nH]c5ccccc45)NC(=O)[C@H](CCO)NC(=O)[C@@H](CCN)NC2=O)C(=O)N[C@@H](C(C)C)C(=O)N[C@H](C(=O)N[C@@H](CO)C(N)=O)CSSC[C@H](NC(=O)[C@@H](N)C(C)C)C(=O)N[C@@H](Cc2ccc(O)cc2)C(=O)N3)[C@@H](C)O)CCNC(=O)[C@H]([C@@H](C)O)NC(=O)[C@H](CCN)NC(=O)[C@H](CCN)NC1=O [Ex. 176] (I: H-VCYCE[dDab][hSer]WCVCS-NH2 / II: [Dab]T[Dab][Dab][Dab][dL]L[Dab][Dab]T; disulfide I:2-I:11, I:4-I:9; amide I:5-II:N; lactam II:4-II:C)	0.125 (≈ 0.052 µM)	0.125 (≈ 0.052 µM)	0.5 (≈ 0.208 µM)	0.25 (≈ 0.104 µM)	0.0625 (≈ 0.026 µM)	0.25 (≈ 0.104 µM)	0.125 (≈ 0.052 µM)	0.125 (≈ 0.052 µM)	<1
CN[C@H](C(=O)N[C@H]1CSSC[C@@H](C(=O)N[C@@H](CO)C(N)=O)NC(=O)[C@H](C(C)C)NC(=O)[C@@H]2CSSC[C@H](NC(=O)[C@H](Cc3ccc(O)cc3)NC1=O)C(=O)N[C@@H](CCC(=O)N[C@@H](CCN)C(=O)N[C@H](C(=O)N[C@@H](CCN)C(=O)N[C@H]1CCNC(=O)[C@H]([C@@H](C)O)NC(=O)[C@H](CCN)NC(=O)[C@H](CCN)NC(=O)[C@H](CC(C)C)NC(=O)[C@@H](CC(C)C)NC(=O)[C@H](CCN)NC1=O)[C@@H](C)O)C(=O)N[C@H](CCN)C(=O)N[C@@H](CCO)C(=O)N[C@@H](Cc1c[nH]c3ccccc13)C(=O)N2)C(C)C [Ex. 177] (I: H-[NMeV]CYCE[dDab][hSer]WCVCS-NH2 / II: [Dab]T[Dab][Dab][Dab][dL]L[Dab][Dab]T; disulfide I:2-I:11, I:4-I:9; amide I:5-II:N; lactam II:4-II:C)	0.125 (≈ 0.0517 µM)	0.0625 (≈ 0.0259 µM)	1 (≈ 0.414 µM)	0.25 (≈ 0.103 µM)	0.0625 (≈ 0.0259 µM)	0.5 (≈ 0.207 µM)	0.25 (≈ 0.103 µM)	0.125 (≈ 0.0517 µM)	<1
CC(=O)N[C@H](C(=O)N[C@H](C(=O)N[C@@H](Cc1ccc(O)cc1)C(=O)N[C@H]1CSSC[C@@H](C(=O)N[C@H](C(=O)N[C@@H](C)C(=O)N[C@@H](CO)C(N)=O)C(C)(C)C)NC(=O)[C@H](Cc2c[nH]c3ccccc23)NC(=O)[C@H]([C@@H](C)O)NC(=O)[C@@H](CCN)NC(=O)[C@H](CCC(=O)N[C@@H](CCN)C(=O)N[C@H](C(=O)N[C@@H](CCN)C(=O)N[C@H]2CCNC(=O)[C@H]([C@@H](C)O)NC(=O)[C@H](CCN)NC(=O)[C@H](CCN)NC(=O)[C@H](CC(C)C)NC(=O)[C@@H](CC(C)C)NC(=O)[C@H](CCN)NC2=O)[C@@H](C)O)NC1=O)[C@@H](C)O)C(C)C [Ex. 178] (I: Ac-VTYCE[dDab]TWC[Tle]AS-NH2 / II: [Dab]T[Dab][Dab][Dab][dL]L[Dab][Dab]T; disulfide I:4-I:9; amide I:5-II:N; lactam II:4-II:C)	0.25 (≈ 0.103 µM)	0.0625 (≈ 0.0258 µM)	0.25 (≈ 0.103 µM)	0.5 (≈ 0.206 µM)	0.125 (≈ 0.0515 µM)	2 (≈ 0.824 µM)	0.125 (≈ 0.0515 µM)	0.125 (≈ 0.0515 µM)	<1
